Columns and labels:
Assay in all cases: relative viability (nuclei count vs DMSO), 5 days (fraction); higher = more cells survive
[1] = compound: CC1(C)CCC(CN2CCN(c3ccc(C(=O)NS(=O)(=O)c4ccc(NCC5CCOCC5)c([N+](=O)[O-])c4)c(Oc4cnc5[nH]ccc5c4)c3)CC2)=C(c2ccc(Cl)cc2)C1 [Venetoclax] + Nc1nc2[nH]cc(CCc3ccc(C(=O)N[C@@H](CCC(=O)O)C(=O)O)cc3)c2c(=O)[nH]1 [Pemetrexed] (partner 0.2 µM)
How it was run: (§1)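 Relative viability is defined as nuclei in treated wells over nuclei in vehicle wells. Duplicate plates were run and medians reported. Lung cancer cell lines in 1536-well plates were dosed by pin tool one day after seeding, with one drug or with a fixed anchor-drug dose plus five library-drug doses (not always all listed) in √10 steps, and nuclei were counted after 5 days.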

[2] = compound: Cn1cnc2c(F)c(Nc3ccc(Br)cc3Cl)c(C(=O)NOCCO)cc21 [Selumetinib] + CC(=O)Nc1cccc(-n2c(=O)n(C3CC3)c(=O)c3c(Nc4ccc(I)cc4F)n(C)c(=O)c(C)c32)c1 [Trametinib] (partner 0.02 µM)
How it was run: as §1

[3] = compound: Cn1cnc2c(F)c(Nc3ccc(Br)cc3Cl)c(C(=O)NOCCO)cc21 [Selumetinib] + COc1cc2c(Oc3ccc(NC(=O)C4(C(=O)Nc5ccc(F)cc5)CC4)cc3F)ccnc2cc1OCCCN1CCOCC1 [Foretinib] (partner 0.25 µM)
How it was run: as §1

[4] = compound: Cn1cnc2c(F)c(Nc3ccc(Br)cc3Cl)c(C(=O)NOCCO)cc21 [Selumetinib] + Nc1nc2[nH]cc(CCc3ccc(C(=O)N[C@@H](CCC(=O)O)C(=O)O)cc3)c2c(=O)[nH]1 [Pemetrexed] (partner 0.2 µM)
How it was run: as §1

| Cell Line | relative viability ([1]; first compound 0.01 µM) | relative viability ([1]; first compound 0.03162 µM) | relative viability ([1]; first compound 0.1 µM) | relative viability ([1]; first compound 0.3162 µM) | relative viability ([1]; first compound 1 µM) | relative viability ([2]; first compound 0.02 µM) | relative viability ([2]; first compound 0.06325 µM) | relative viability ([2]; first compound 0.2 µM) | relative viability ([2]; first compound 0.6325 µM) | relative viability ([3]; first compound 0.02 µM) | relative viability ([3]; first compound 0.06325 µM) | relative viability ([3]; first compound 0.2 µM) | relative viability ([3]; first compound 0.6325 µM) | relative viability ([4]; first compound 0.02 µM) | relative viability ([4]; first compound 0.06325 µM) | relative viability ([4]; first compound 0.2 µM) | relative viability ([4]; first compound 0.6325 µM) |
| --- | --- | --- | --- | --- | --- | --- | --- | --- | --- | --- | --- | --- | --- | --- | --- | --- | --- |
| COR-L 105 | 0.738 | 1.03 | 1.11 | 1.16 | 1.07 | 0.435 | 0.427 | 0.345 | 0.468 | 0.978 | 1.1 | 0.846 | 0.534 | 1.11 | 1.02 | 0.841 | 0.582 |
| LK-2 | 0.331 | 0.381 | 0.255 | 0.249 | 0.227 | 0.834 | 0.753 | 0.844 | 0.69 | 1.68 | 1.51 | 0.968 | 1.23 | 0.282 | 0.349 | 0.352 | 0.375 |
| 201T | 0.283 | 0.309 | 0.33 | 0.329 | 0.366 | 0.777 | 0.698 | 0.723 | 0.735 | 0.977 | 0.978 | 1.05 | 0.874 | 0.358 | 0.328 | 0.323 | 0.308 |
| HCC-78 | 0.896 | 0.875 | 0.965 | 0.935 | 0.881 | 0.785 | 0.643 | 0.792 | 0.698 | 0.516 | 0.435 | 0.401 | 0.449 | 0.836 | 0.892 | 0.918 | 0.903 |
| NCI-H650 | 0.911 | 1.02 | 1.03 | 0.89 | 0.836 | 0.963 | 1.03 | 0.979 | 0.866 | 1.07 | 1.18 | 1.21 | 1.17 | 1.05 | 1.25 | 1.19 | 1.16 |
| HARA | 0.216 | 0.247 |  | 0.329 | 0.284 | 0.531 | 0.596 | 0.787 | 0.448 | 0.905 | 0.726 | 0.71 | 0.592 | 0.24 | 0.179 | 0.224 | 0.217 |
| NCI-H661 | 0.933 | 0.922 | 0.861 | 0.897 | 0.901 | 0.585 | 0.575 | 0.567 | 0.537 | 1.12 | 0.979 | 1.02 | 0.913 | 0.955 | 0.875 | 0.92 | 0.872 |
| NCI-H2087 | 0.7 | 0.65 | 0.785 | 0.707 | 0.668 | 0.19 | 0.171 | 0.231 | 0.204 | 0.982 | 0.718 | 0.507 | 0.304 | 0.677 | 0.649 | 0.591 | 0.361 |
| NCI-H2405 | 0.98 | 1.16 | 0.979 | 1.06 | 0.963 | 0.643 | 0.638 | 0.669 | 0.615 | 1.05 | 0.983 | 0.909 | 0.545 | 0.999 | 0.813 | 0.75 | 0.736 |
| NCI-H1944 | 0.669 | 0.592 | 0.571 | 0.607 | 0.589 | 0.442 | 0.398 | 0.406 | 0.389 | 0.898 | 0.796 | 0.69 | 0.536 | 0.573 | 0.476 | 0.405 | 0.484 |
| NCI-H1793 | 0.944 | 0.976 | 0.732 | 0.799 | 0.713 | 0.424 | 0.414 | 0.443 | 0.436 | 0.69 | 0.511 | 0.386 | 0.415 | 0.782 | 0.601 | 0.435 | 0.517 |
| NCI-H647 | 0.164 | 0.192 | 0.206 | 0.178 | 0.178 | 0.478 | 0.391 | 0.405 | 0.484 | 1.19 | 1.21 | 0.842 | 1.02 | 0.177 | 0.178 | 0.19 | 0.173 |
| NCI-H596 | 0.473 | 0.495 | 0.461 | 0.488 | 0.486 | 0.743 | 0.881 | 0.741 | 0.607 | 0.832 | 0.781 | 0.696 | 0.653 | 0.485 | 0.576 | 0.426 | 0.494 |
| EKVX | 0.471 | 0.402 | 0.351 | 0.427 | 0.35 | 0.308 | 0.325 | 0.344 | 0.32 | 0.724 | 0.675 | 0.517 | 0.568 | 0.342 | 0.361 | 0.323 | 0.307 |
| NCI-H358 | 0.176 | 0.176 | 0.187 | 0.178 | 0.179 | 0.125 | 0.134 | 0.121 | 0.11 | 0.43 | 0.331 | 0.272 | 0.291 | 0.173 | 0.165 | 0.144 | 0.177 |
| H3255 | 0.584 | 0.615 | 0.526 | 0.603 | 0.562 | 0.586 | 0.583 | 0.601 | 0.54 | 0.867 | 0.921 | 0.457 | 0.739 | 0.564 | 0.571 | 0.552 | 0.549 |
| NCI-H1651 | 0.628 | 0.674 | 0.561 | 0.529 | 0.57 | 0.854 | 0.85 | 0.835 | 0.87 | 0.758 | 0.731 | 0.67 | 0.673 | 0.623 | 0.57 | 0.596 | 0.626 |
| NCI-H1395 | 0.823 | 0.862 | 0.764 | 0.95 | 0.819 | 1.09 | 0.964 | 0.932 | 1.05 | 0.959 | 0.978 | 0.928 | 0.94 | 0.837 | 0.868 | 0.694 | 0.92 |

From the supplement of paper PMC10307832
